Results from patent publication US20180008572A1, “ANTIMETASTATIC COMPOSITION COMPRISING AT LEAST ONE FLAVANOL-TYPE COMPOUND” (priority 2014, published 2018).

Experiments:
SiHa-F3 cells [1] = test: Tumor cell migration in a Boyden chamber; format: cell-based, human; conditions: for migration of the cancer cells (% of the control): Boyden chamber, 16 h, 100 nM to 1 mM
Protocol: Tests of cell migration and of survival of the treated cells were carried out with a model of super-invasive tumor cells obtained from a human cervical adenocarcinoma cell line, SiHa. The selection of the super-invasive SiHa-F3 cells (F3 on the graphs) was carried out after three consecutive invasions in vitro in permeable supports of Transwell® type coated with Matrigel® (Porporato P E et al., Cell Rep 2014, 8:754-766). […] The actual migration of the tumor cells was measured in a Boyden chamber with 50 000 cells per well and 0.15% of fetal bovine serum (FBS) used as chemoattractant. The pore diameters of the porous membrane separating the two compartments of the Boyden chamber were fixed at 8 μm. After 16 hours of migration, the cells were first fixed with methanol for 3 min and then stained with crystal violet. The culture medium used was DMEM 4.5 g/l of glucose, GlutaMAX®, 1% of a solution of penicillin/streptomycin and 10% of fetal bovine serum. Cell migration measurements: A 48-well reusable Boyden chamber (Neuroprobe) was used according to the manufacturer's instructions. Briefly, medium containing 0.15% of fetal bovine serum served as chemoattractant in the lower compartment, a polycarbonate membrane pierced with pores 8 μm in diameter separated the two compartments, and 50 000 SiHa-F3 cells in suspension in the presence of the indicated compounds were introduced into the upper compartment. The migration of the cells was quantified after an overnight period (16 h). The cells, having migrated, were fixed for 3 min in methanol, stained with 0.23% crystal violet for 30 min, and counted on photographs taken at a magnification of ×2.5 using an inverted-phase microscope (Axiovert and Mrc camera, Zeiss). […] Results were expressed as % of the control.

melanoma cells = conditions: mice having received cancer cells by intravenous injection; cited from earlier work
SiHa-F3 cells [2] = test: Level of reactive oxygen species (ROSs), DCFDA technique; format: cell-based, human; conditions: 1 μM, 60 minutes of pretreatment
Protocol: Moreover, an evaluation of the impact of the products tested on the level of reactive oxygen species (ROSs) observed was carried out according to the DCFDA technique after 60 minutes of pretreatment of the SiHa-F3 metastatic progenitor cells with the products tested. Measurement of total cell ROSs: 20 000 SiHa-F3 cells were seeded before being treated for 1 h with the compounds indicated. The cells were then incubated for 30 min at 37° C. in a 1 μM solution of H2-DCFDA (Invitrogen) in HBSS containing 10 mM of HEPES, before measurement of the absorbance at 535 nm (Victor X4 spectrophotometer, Perkin Elmer).

[3] = compared with epigallocatechin-3-gallate (EGCG); cited from earlier work
SiHa-F3 cells [4] = test: Cell survival of SiHa-F3 tumor cells (crystal violet or MTT); format: cell-based, human; conditions: 1 μM
Protocol: Tests of cell migration and of survival of the treated cells were carried out with a model of super-invasive tumor cells obtained from a human cervical adenocarcinoma cell line, SiHa. The selection of the super-invasive SiHa-F3 cells (F3 on the graphs) was carried out after three consecutive invasions in vitro in permeable supports of Transwell® type coated with Matrigel® (Porporato P E et al., Cell Rep 2014, 8:754-766).
The cell survival, in order to exclude any toxic effect of the products tested, was estimated either on the basis of the quantification of the cells stained with crystal violet, or by measuring the mitochondrial succinate dehydrogenase (SDH) activity on the reduction of the MTT tetrazolium salt (suspension of formazan obtained in DMSO and measurement of absorbance at 570 nm).
Measurement of cell viability: 20 000 SiHa-F3 cells were seeded and treated with the indicated compounds overnight (16 h). The cells were then fixed for 3 min with methanol, stained with 0.23% crystal violet, and resuspended in DMSO in order to measure the absorbance at 595 nm (Victor X4 spectrophotometer, Perkin Elmer); or alternatively incubated for 3 h at 37° C. in a saturating solution of MTT in HBSS containing 10 mM of HEPES, and resuspended in DMSO in order to measure the absorbance at 630 nm (Victor X4 spectrophotometer, Perkin Elmer). […]

[5] = tested on: B16F10 murine melanoma cells; test: Model of experimental lung metastases: pretreated B16F10 cells injected into the caudal vein; format: in vivo, C57BL/6 mice; conditions: B16F10 cells pretreated with rotenone 10 nM + 10 μM compound, 14 days after injection
Text: The B16F10 tumor cells come from the ATCC collection. The male 6- or 7-week-old C57BL/6 mice were acquired from the Janvier laboratories, and the protocols were applied with the agreement of the UCL ethics committee and while adhering to Belgian laws relating to animal care. Model of experimental metastases: the B16F10 cells were pretreated with DMSO (0.5%, rotenone carrier, negative control) or rotenone (respiratory chain complex I inhibitor and mitochondrial superoxide inducer as described in Porporato P E et al., Cell Rep 2014, 8:754-766, positive control), alone or in combination with the indicated compounds for 6 h. The cells were then detached, counted and resuspended in a proportion of 10×10^6 cells/ml in HBSS without calcium or magnesium. 10^6 cells (i.e. 100 μl of the suspension) were then injected into the caudal vein of C57BL/6 mice. 14 days after injection of the cells, the mice were sacrificed, the lungs were isolated and the metastases (spots positive for melanin) were counted under a dissection microscope.

SMILES | decrease in the number of tumor cells migrating from one compartment to the other of the Boyden cell (SiHa-F3 cells [1]; 1 μM, 16 hours of migration) | migration of the cancer cells (% of the control) (SiHa-F3 cells [1]) | melanoma cell invasion (melanoma cells) | reduction in the level of reactive oxygen species (ROSs) produced by the cells (SiHa-F3 cells [2]) | anti-proliferative effect [3] | survival of the tumor cells (SiHa-F3 cells [4]) | formation of lung metastases [5]
Oc1cc(O)c2c(c1)O[C@H](c1ccc(O)c(O)c1)[C@@H](O)C2 [(+)-catechin] | does not however make it possible to significantly decrease | not the (+)-catechin, inhibit the migration of the cancer cells | inhibited | no impact | negligible | does not affect the survival of the tumor cells | 
O=C(O[C@@H]1Cc2c(O)cc(O)cc2O[C@@H]1c1cc(O)c(O)c(O)c1)c1cc(O)c(O)c(O)c1 [epigallocatechin gallate] |  | inhibit the migration of the cancer cells |  |  |  |  | not Epigallocatechin Gallate Reduces the Formation of Lung Metastases
